Assay results from patent publication US20160274087A1, “SCREENING ASSAY FOR AGENTS THAT INFLUENCE BETA CELL NUMBER AND/OR PHENOTYPE” (VRIJE UNIVERSITEIT BRUSSEL, priority 2013, published 2016).
Marks after values point to notes of the source that are not given here.

How the values were obtained:
[1] = tested on: beta cells; assay: Immunohistochemical analysis of Ki67 in pancreas after dexamethasone injection; assay type: in vivo, rat; conditions: DEX 1 mg/Kg BW daily for 5 days; data not shown
[2] = Metabolic effects of in vivo dexamethasone administration
[3] = tested on: selected gene targets in FACS-purified beta cells; assay: Q-PCR on FACS-purified beta cells from dexamethasone-injected rats; conditions: 5 single injections DEX 1 mg/kg BW daily
Source text: Control rats were given vehicle (saline).
RNA was extracted using RNeasy columns (Qiagen), and quality was verified using an Agilent Bioanalyzer. Following removal of genomic DNA (TURBO DNA-free, Ambion) and reverse-transcription (High-Capacity cDNA Archive Kit, Applied Biosystems), gene targets were amplified on an ABI Prism 7700 using TaqMan Universal PCR Master Mix and TaqMan MGB probes (Applied Biosystems, assay IDs available on request). Expression levels of target genes were normalized to 4 housekeeping genes (β-actin, HPRT1, rplp2 and psmc5) (ΔCt) and expressed versus a control condition as calibrator (comparative ΔΔCt method).

[4] = tested on: rat beta cells; assay: Beta cell DNA synthesis/proliferation by EdU (and BrdU) incorporation, incl. LOPAC screen; assay type: cell-based; conditions: LOPAC screen at 1 μM, adult rat beta cells, EdU day 3 to 6
Procedure: (§1) On day 1, 9 and 15 of culture, total numbers of living beta cells per well were determined by semi-automatic cell count, after Hoechst 33342 (Ho) and propidium iodide (PI) staining. Numbers of living beta cells were obtained by subtracting the PI-positive cell numbers from the Ho-positive cell numbers, and correcting for the percent insulin-negative cells, as determined following insulin-immunofluorescence staining. They were expressed as percent of the numbers on day 1. Each condition was also evaluated for increases in the percentage of proliferating beta cells (incorporating the thymidine-analogue 5-ethynyl-2′-deoxyuridine, EdU; 100 μmol/l). To detect beta cells that underwent two successive cycles, cells were sequentially exposed to two different thymidine-analogs, first EdU from day 3 to 6, and then BrdU (100 μmol/l) from day 7 to 10, with a 24-hour label-free period in between. EdU-positive (EdU^+) nuclei were detected with the Click-iT Assay kit (Invitrogen), while BrdU-positive (BrdU^+) nuclei were identified with anti-BrdU antibody.
Freshly purified beta cells were cultured in control medium for 24 h prior to the addition of the LOPAC test compounds (day 1). The culture medium was refreshed on day 3 and the cells were then cultured further with 5-ethynyl-2′-deoxyuridine (EdU; 10 μM) up to day 6. Cell viability and percentage EdU incorporation were quantified after imaging and image analysis using the BD Pathway Bioimager, as described before (Assefa et al., 2014). To test the significance of compound effect on beta cell proliferation, average Z-score for each compound was calculated and a cut-off for potential positive hits was set at a Z-score of greater than three standard deviations. Thus, a compound is considered a hit only if it increases the percent EdU incorporation to above three standard deviation of the plate-averaged percent EdU incorporation.
Sorted beta cells were seeded in 384-well or 6-well plates coated with 804G matrix, and kept in culture for up to 15 days at 37° C. 5% CO2 using Ham F10 supplemented with 1 mM L-glutamine, 0.1 mg/ml streptomycin, 0.075 mg/ml penicillin, 50 μM of isobutyl-1-methylxanthine (IBMX) at 10 mM D-glucose with and without synthetic GCs (6 methyl-prednisolone (6MP), dexamethasone (DEX), GR-modulators (compound A (CPA), mifepristone (MIF), and NFκB inhibitors (JSH-23 en Bay11-7085). Total cell number and beta cell viability was evaluated after incubation with Hoechst 33342 and propidium iodide. All chemicals were from Sigma Life Sciences or Merck. Quantification of cell numbers and analysis of beta-cell viability was done using the Pathway Bioimager (BD Biosciences) and using IPlab and Attovision software for background subtraction as described prior (Assefa et al., 2014). Replicating beta cells were quantified after 24 or 72 hrs incubation with 5-ethynyl-2′-deoxyuridine (EdU, a thymidine analog) using the ClickIT EDU Alexa Fluor assay (Invitrogen). EdU-positive cells were expressed as percentage of total cell number.

[5] = tested on: rat beta cells; assay: Beta cell viability / cell death (propidium iodide assay); assay type: cell-based; conditions: LOPAC screen at 1 μM; adult rat beta cells; day 6; control medium 97
Source text: as §1, with “Numbers” for “On day 1, 9 and 15 of culture, total numbers of living beta cells per well were determined by semi-automatic cell count, after Hoechst 33342 (Ho) and propidium iodide (PI) staining. Numbers”, “Each condition was also evaluated for increases in the percentage of proliferating beta cells (incorporating the thymidine-analogue 5-ethynyl-2′-deoxyuridine, EdU; 100 μmol/l).” left out
Absolute number of cells was determined by whole-well imaging using the BD-PathwayBioimager855 (BD-Biosciences). IPLab and AttoVision software packages (BD-Biosciences) were used for image background subtraction, segmentation and quantification.
Freshly purified beta cells were cultured in control medium for 24 h prior to the addition of the LOPAC test compounds (day 1). The culture medium was refreshed on day 3 and the cells were then cultured further with 5-ethynyl-2′-deoxyuridine (EdU; 10 μM) up to day 6. […] Thus, a compound is considered a hit only if it increases the percent EdU incorporation to above three standard deviation of the plate-averaged percent EdU incorporation.

[6] = biological target: T1, glucocorticoid receptor (GR) (Homo sapiens, UniProt P04150); conditions: cited from earlier work
T1 sequence (P04150 1-777): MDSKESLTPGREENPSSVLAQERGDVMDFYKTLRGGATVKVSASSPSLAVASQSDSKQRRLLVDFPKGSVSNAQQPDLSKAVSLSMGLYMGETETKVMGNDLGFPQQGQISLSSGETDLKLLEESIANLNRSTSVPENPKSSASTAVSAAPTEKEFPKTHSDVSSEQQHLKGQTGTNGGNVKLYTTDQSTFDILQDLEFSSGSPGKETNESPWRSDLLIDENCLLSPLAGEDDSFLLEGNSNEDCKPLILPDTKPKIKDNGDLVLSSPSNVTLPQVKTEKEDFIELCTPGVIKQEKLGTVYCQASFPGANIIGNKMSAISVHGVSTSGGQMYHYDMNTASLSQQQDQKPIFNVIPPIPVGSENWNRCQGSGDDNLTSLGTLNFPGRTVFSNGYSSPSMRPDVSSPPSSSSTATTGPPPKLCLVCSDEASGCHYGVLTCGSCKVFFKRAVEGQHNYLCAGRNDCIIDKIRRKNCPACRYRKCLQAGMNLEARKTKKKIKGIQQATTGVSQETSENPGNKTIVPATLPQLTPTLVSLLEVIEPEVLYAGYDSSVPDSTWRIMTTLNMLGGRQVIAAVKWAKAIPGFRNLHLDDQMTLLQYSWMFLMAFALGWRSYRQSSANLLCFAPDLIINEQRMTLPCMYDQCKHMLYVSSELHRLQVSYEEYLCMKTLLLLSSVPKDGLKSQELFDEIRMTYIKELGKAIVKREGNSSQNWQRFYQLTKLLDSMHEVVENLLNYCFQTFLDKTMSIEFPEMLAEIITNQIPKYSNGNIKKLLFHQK

SMILES: C[C@@H]1C[C@H]2[C@@H]3CCC4=CC(=O)C=C[C@]4(C)[C@@]3(F)[C@@H](O)C[C@]2(C)[C@@]1(O)C(=O)CO [DEX, dexamethasone]
- increase of the percentage beta cells positive for Ki67 [1]: 3 fold
- loss of body weight ([2]; DEX 1 mg/Kg BW daily for 5 consecutive days): 20%
- insulin content ([2]; DEX 1 mg/Kg BW daily for 5 days, MOCK 48 ± 7): 22 ± 3 ng/K beta cells
- IPGT 90 min ([2]; DEX 1 mg/Kg BW daily for 5 days, MOCK 81 ± 3): 278 ± 44 mg/dL
- IPGT 120 min ([2]; DEX 1 mg/Kg BW daily for 5 days, MOCK 82 ± 2): 227 ± 62 mg/dL
- IPGT 60 min ([2]; DEX 1 mg/Kg BW daily for 5 days, MOCK 83 ± 5): 375 ± 54 mg/dL
- Fasting glycemia ([2]; DEX 1 mg/Kg BW daily for 5 days, MOCK 85 ± 3): 169 ± 77 mg/dL
- Islet insulin content ([2]; DEX 1 mg/Kg BW daily for 5 days, MOCK 100): 37 ** ng/islet
- IPGT 30 min ([2]; DEX 1 mg/Kg BW daily for 5 days, MOCK 180 ± 14): 456 ± 41 mg/dL
- IPGT 15 min ([2]; DEX 1 mg/Kg BW daily for 5 days, MOCK 360 ± 43): 497 ± 16 mg/dL
- Serum insulin ([2]; DEX 1 mg/Kg BW daily for 5 days, MOCK 4927 ± 724): 8447 ± 472 pg/mL
- Body weight Day 6 ([2]; DEX 1 mg/Kg BW daily i.p. for 5 days, MOCK 382 ± 13): 304 ± 11 g
- Body weight Day 0 ([2]; DEX group before treatment, MOCK 356 ± 8): 363 ± 13 g
- Cyclin B1 mRNA level (ΔΔCt values relative to control, adult male) [3]: 6.5 ± 2.5 ^3
- Cyclin B2 mRNA level (ΔΔCt values relative to control, adult male) [3]: 10.8 ± 5.1 ^3
- CyclinD1 mRNA level (ΔΔCt values relative to control, adult male) [3]: 0.9 ± 0.4 ^
- DLK1 mRNA level (ΔΔCt values relative to control, adult male) [3]: 33.0 ± 19.1 ^3
- FKBP5 mRNA level (ΔΔCt values relative to control, adult male) [3]: 2.4 ± 0.2 ^
- ICAM1 mRNA level (ΔΔCt values relative to control, adult male) [3]: 0.1 ± 0.1 ^3
- MafA mRNA level (ΔΔCt values relative to control, adult male) [3]: 0.3 ± 0.1 ^
- MafB mRNA level (ΔΔCt values relative to control, adult male) [3]: 0.6 ± 0.2 ^
- NPY mRNA level (ΔΔCt values relative to control, adult male) [3]: 3.3 ± 0.5 ^3
- NR3C1 mRNA level (ΔΔCt values relative to control, adult male) [3]: 0.5 ± 0.1 ^2
- Pdx1 mRNA level (ΔΔCt values relative to control, adult male) [3]: 0.4 ± 0.2 ^

SMILES: C[C@]12C=CC(=O)C=C1CC[C@H]1[C@@H]3C[C@@H](O)[C@](O)(C(=O)CO)[C@@]3(C)C[C@H](O)[C@@]12F [Triamcinolone]
- Percent EdU+ cells ([4]; control medium 5.6): 31.1%
- Z-Score ([4]; hit cut-off three standard deviations): 5.9
- Percent viable cells [5]: 99%
- Relative Potencies GR [6]: 5
